# Where a name gives a salt, the structure may show the parent alone.
# Test system: liver
# Experiment: Transcriptional profiling on Affymetrix GeneChips, single dose, naïve mice: liver
# Assay type: in vivo, C57BL/6 mice
# Conditions: for Number of differentially expressed genes identified: Liver: Naïve, Single Dose, 100 mpk, vs Vehicle
# Method: Treated mice were sacrificed at 2, 7, or 12 hours. Tissues (liver, spleen, kidney, jejunum, cortex, hippocampus, striatum and whole blood) were collected and analyzed by transcriptional profiling on mouse Affymetrix GeneChips.
# Tissues (liver, spleen, kidney, jejunum, cortex, hippocampus, striatum and whole blood) were collected and analyzed by transcriptional profiling on mouse Affymetrix GeneChips.
# Animals were exposed to CO2 and whole blood collected via cardiac puncture. Two 100 μl aliquots of whole blood were collected in 1.5 mL microcentrifuge tubes and snap frozen in liquid nitrogen. Peripheral (liver, spleen, kidney and jejunum) and CNS brain (cerebellum, hippocampus, striatum and cortex) tissues were harvested and snap frozen in liquid nitrogen, with special care taken to collect tissues of similar size and from the same location. All samples were stored at −80° C. until RNA extraction was conducted.
# For RNA preparation, frozen tissues were placed in 2 mL RNAse-free 96-well blocks with 1.5 mL QIAzol Lysis Reagent (QIAgen) and a 3.2 mm stainless steel bead (BioSpec Products, Bartlesville, Okla.). Tissues were disrupted for four cycles of 45 seconds in a Mini-Beadbeater (Biospec Products). RNA was extracted in chloroform and the aqueous phase was mixed with an equal volume of 70% ethanol. Extracted RNA was applied to RNeasy 96 plates and purified by the spin method according to the manufacturer's protocol (RNeasy 96 Universal Tissue Protocol, QIAgen, Hilden Germany).
# Automated sample amplifications and biotin labelings were carried out using the NuGEN Ovation RNA Amplification system V2 (Cat #3100), Ovation WB reagent (Cat #1300) and Encore Biotin module (Cat #4200) (NuGEN Technologies, Inc, San Carlos, Calif.) according to manufacturer's recommendations using an Arrayplex automated liquid handler (Beckman Coulter, Indianapolis, Ind.). Two micrograms of biotin labeled sscDNA probe were hybridized to Affymetrix GeneChip Affymetrix HT_MG-430_PM plate arrays with modified conditions as described in Allaire et al. Washing and staining of the hybridized arrays were completed as described in the GeneChip Expression analysis technical manual for HT plate arrays using the Genechip® Array Station (Affymetrix, Santa Clara, Calif.) with modifications as described in Allaire et al. The processed GeneChip® plate arrays were scanned using GeneTitan scanner (Affymetrix, Santa Clara, Calif.).
# Affymetrix scans were subject to quality control (QC) measures. These tests included a visual inspection of the distribution of raw signal intensities and an assessment of RNA degradation, relative log expression (RLE), and normalized unsealed standard error (NUSE). All sample scans that passed these QC metrics were included in the analysis.
# All CEL files were subjected to GC-content-based Robust Multi-array Average (GCRMA) normalization (version 2.20.0) (Irizarry R A, et al. Nucleic Acids Res 2003; 31:e15; Li C, et al. Genome Biol 2001; 2:[…]0032). Expression levels were log (base 2) transformed.
# All calculations and analyses were carried out using R (version 2.11.1) and Bioconductor computational tools (Gentleman R. Springer Science+Business Media 2005).
# [1] = liver, 100 mg/kg, 2 hr, vs matched vehicle controls
smiles,measurement,setting,value
"COC(=O)/C=C/C(=O)O [MMF, monomethyl fumarate]",FC 1437867_PM_at (no gene symbol),"LIVER, 100MMF-vs-Veh, 2 h",1.50
same,FC 1444516_PM_at (no gene symbol),"LIVER, 100MMF-vs-Veh, 2 h",2.19
same,FC 1447411_PM_at (no gene symbol),"LIVER, 100MMF-vs-Veh, 2 h",2.81
same,FC 9130221J17Rik (1443159_PM_at),"LIVER, 100MMF-vs-Veh, 2 h",1.57
same,FC Abcc1 (1452233_PM_at),"LIVER, 100MMF-vs-Veh, 2 h",1.86
same,FC Akr1b8 (1448894_PM_at),"LIVER, 100MMF-vs-Veh, 2 h",2.27
same,FC Caprin1 (1448348_PM_at),"LIVER, 100MMF-vs-Veh, 2 h",−1.56
same,FC Clec4d (1420804_PM_s_at),"LIVER, 100MMF-vs-Veh, 2 h",2.05
same,FC Csnk2a1 (1419038_PM_a_at),"LIVER, 100MMF-vs-Veh, 2 h",−1.62
same,FC Figf (1438953_PM_at),"LIVER, 100MMF-vs-Veh, 2 h",2.25
same,FC Figf (1438954_PM_x_at),"LIVER, 100MMF-vs-Veh, 2 h",1.79
same,FC Fxr1 (1452247_PM_at),"LIVER, 100MMF-vs-Veh, 2 h",−1.53
same,FC Gclc (1424296_PM_at),"LIVER, 100MMF-vs-Veh, 2 h",1.72
same,FC Gclc (1455959_PM_s_at),"LIVER, 100MMF-vs-Veh, 2 h",1.64
same,FC Hmox1 1448239_PM_at,"LIVER, 100MMF-vs-Veh, 2 h",2.41
same,FC Meis2 (1440091_PM_at),"LIVER, 100MMF-vs-Veh, 2 h",−1.67
same,FC Pgd (1436771_PM_x_at),"LIVER, 100MMF-vs-Veh, 2 h",1.61
same,FC Pgd (1437380_PM_x_at),"LIVER, 100MMF-vs-Veh, 2 h",1.65
same,FC Ppfibp2 (1417801_PM_a_at),"LIVER, 100MMF-vs-Veh, 2 h",2.55
same,FC Prpf38b (1455016_PM_at),"LIVER, 100MMF-vs-Veh, 2 h",−1.53
same,FC Srxn1 (1419942_PM_at),"LIVER, 100MMF-vs-Veh, 2 h",1.68
same,FC Srxn1 (1426875_PM_s_at),"LIVER, 100MMF-vs-Veh, 2 h",1.63
same,FC Srxn1 (1451680_PM_at),"LIVER, 100MMF-vs-Veh, 2 h",1.55
same,FC 2010003K11Rik (1424626_PM_at),"LIVER, 100MMF-vs-Veh, 7 h",2.20
same,FC 4930588G05Rik (1430175_PM_at),"LIVER, 100MMF-vs-Veh, 7 h",−1.76
same,FC Akr1b8 (1448894_PM_at),"LIVER, 100MMF-vs-Veh, 7 h",1.75
same,FC Bmp6 (1450759_PM_at),"LIVER, 100MMF-vs-Veh, 7 h",1.65
same,FC Cda (1427357_PM_at),"LIVER, 100MMF-vs-Veh, 7 h",1.92
same,FC Clec4n (1419627_PM_s_at),"LIVER, 100MMF-vs-Veh, 7 h",2.40
same,FC Erc2 (1434582_PM_at),"LIVER, 100MMF-vs-Veh, 7 h",−1.95
same,FC Fzd8 (1445815_PM_at),"LIVER, 100MMF-vs-Veh, 7 h",−1.81
same,FC G6pdx (1448354_PM_at),"LIVER, 100MMF-vs-Veh, 7 h",1.61
same,FC Marco (1449498_PM_at),"LIVER, 100MMF-vs-Veh, 7 h",2.44
same,FC Nqo1 (1423627_PM_at),"LIVER, 100MMF-vs-Veh, 7 h",2.20
same,FC Pir (1429001_PM_at),"LIVER, 100MMF-vs-Veh, 7 h",1.50
same,FC Srxn1 (1419942_PM_at),"LIVER, 100MMF-vs-Veh, 7 h",1.52
same,FC Srxn1 (1426875_PM_s_at),"LIVER, 100MMF-vs-Veh, 7 h",1.53
same,FC Srxn1 (1451680_PM_at),"LIVER, 100MMF-vs-Veh, 7 h",1.58
same,FC 1810055G02Rik (1425921_PM_a_at),"LIVER, 100MMF-vs-Veh, 12 h",1.86
same,FC 4933433P14Rik (1431334_PM_a_at),"LIVER, 100MMF-vs-Veh, 12 h",1.81
same,FC Ablim1 (1453103_PM_at),"LIVER, 100MMF-vs-Veh, 12 h",−1.51
same,FC Car3 (1460256_PM_at),"LIVER, 100MMF-vs-Veh, 12 h",−1.57
same,FC Clmn (1439117_PM_at),"LIVER, 100MMF-vs-Veh, 12 h",−1.54
same,FC Ctla2a (1448471_PM_a_at),"LIVER, 100MMF-vs-Veh, 12 h",1.63
same,FC Dnajc12 (1417441_PM_at),"LIVER, 100MMF-vs-Veh, 12 h",2.53
same,FC Fndc3b (1433833_PM_at),"LIVER, 100MMF-vs-Veh, 12 h",1.66
same,FC Gadd45b (1450971_PM_at),"LIVER, 100MMF-vs-Veh, 12 h",1.50
same,FC Gm3579 (1431214_PM_at),"LIVER, 100MMF-vs-Veh, 12 h",2.74
same,FC Hyou1 (1423290_PM_at),"LIVER, 100MMF-vs-Veh, 12 h",1.82
same,FC Hyou1 (1423291_PM_s_at),"LIVER, 100MMF-vs-Veh, 12 h",1.52
same,FC Lrrc59 (1416235_PM_at),"LIVER, 100MMF-vs-Veh, 12 h",1.65
same,FC Nme6 (1448574_PM_at),"LIVER, 100MMF-vs-Veh, 12 h",1.57
same,FC Ppapdc1b (1428154_PM_s_at),"LIVER, 100MMF-vs-Veh, 12 h",1.87
same,FC Ppm1k 1441988_PM_at,"LIVER, 100MMF-vs-Veh, 12 h",−1.56
same,"Number of genes, DMF Only / MMF Only",Liver,34
same,Number of differentially expressed genes identified: Liver,2 h after last dosing,23
same,Number of differentially expressed genes identified: Liver,7 h after last dosing,15
same,Number of differentially expressed genes identified: Liver,12 h after last dosing,16
same,Murine Liver DEGs: Abcc1 (1452233_PM_at),[1],1.86
same,Murine Liver DEGs: Akr1b8 (1448894_PM_at),[1],2.27
same,Murine Liver DEGs: Ampd3 (1422573_PM_at),[1],1.70
same,Murine Liver DEGs: Caprin1 (1448348_PM_at),[1],−1.56
same,Murine Liver DEGs: Clec4d (1420804_PM_s_at),[1],2.05
same,Murine Liver DEGs: Cmah (1447019_PM_at),[1],−1.55
same,Murine Liver DEGs: Csnk2a1 (1419038_PM_a_at),[1],−1.62
same,Murine Liver DEGs: Figf (1438953_PM_at),[1],2.25
same,Murine Liver DEGs: Fxr1 (1452247_PM_at),[1],−1.53
same,Murine Liver DEGs: Gclc (1424296_PM_at),[1],1.72
same,Murine Liver DEGs: Hmox1 (1448239_PM_at),[1],2.41
same,Murine Liver DEGs: Meis2 (1440091_PM_at),[1],−1.67
same,Murine Liver DEGs: Mkln1 (1416734_PM_at),[1],−1.69
same,Murine Liver DEGs: Pgd (1436771_PM_x_at),[1],1.61
same,Murine Liver DEGs: Ppfibp2 (1417801_PM_a_at),[1],2.55
same,Murine Liver DEGs: Prpf38b (1455016_PM_at),[1],−1.53
same,Murine Liver DEGs: Ptprb (1453908_PM_at),[1],−1.76
same,Murine Liver DEGs: Ptprg (1456070_PM_at),[1],−1.85

# From patent US20160115540A1, “PRODRUGS AND DRUGS” (Biogen MA Inc., priority 2013, published 2016)
